Here are results for 25 molecules from patent US5843937A (priority 1996, dated 1998).

One data set deals with U937 Cells. Put plainly: Cytotoxicity of Invented Compounds Against U937 Cells. In kind it is cell-based. Particulars: 3H-thymidine last 24 h. Here is the method: Some of the new compounds were tested for their cytotoxicity against cancer cells. U937 cells were used to determine the IC50 values. The assay was set up in triplicate in 96 well flat bottom microtiter plates. All cells are seeded at 5×10^3 cells/well in RPMI-1640 plus 10% FCS. Drugs were added and the total volume was adjusted to 0.2 mL/well. Total incubation time was 48 h with the addition of ^3 H-thymidine for the last 24 h of incubation. The assay was harvested and counted with the packard Matrix 96 beta counter. The results were expressed as the percent growth inhibition calculated from the percent decrease in cpm of treated cells relative to the untreated controls.

The test system of a further data set is B16 Melanoma. Put plainly: Cytotoxicity of Invented Compounds Against B16 Melanoma. In kind it is cell-based. Particulars: Mus musculus.
The conditions of data set [1]: prior compounds; experimental animals (CC-1065); cited from earlier work.
For data set [2], the system named is human liver cancer HepG2 cells. Put plainly: Cytotoxicity of Mab-YW-242 conjugates against liver cancer HepG2 cells (3H-thymidine incorporation). In kind it is cell-based. To be noted: 1 h drug incubation, washed, overnight with 3H-thymidine, read-out: IC50 Values of the Mab-drug Conjugate. Here is the method: Using such potent molecules for monoclonal antibody-drug conjugate has advantages over using low potency agents. The tumor specific antibody will carry these molecules specifically to tumor cells, thus enhancing the therapeutic efficacy of these compounds. The monoclonal antibody-drug conjugates are still very toxic to cancer cells. The Mab-YW-242 conjugates were tested in vitro against human liver cancer HepG2 cells. IC50 values for cell proliferation were determined by incorporation of ^3 H-thymidine.
The conjugates were tested in vitro against human liver cancer HepG2 cells. IC50 values for cell proliferation were determined by incorporation of ^3 H-thymidine. 4×10^4 of trypsinized cells in 0.1 mL of DMEM medium containing 10% of heat-inactivated FCS were added to each well of 96-well microtiter plates and incubated for 4 h at 37° C. to allow attachment of the cells. Drugs in 10 μL of PBS were added and incubated for 1 h at 37° C. Medium was removed and the cells were washed with PBS (0.2 mL). Fresh medium (0.1 mL) and ^3 H-thymidine (10 μL) were added. The cells were incubated overnight at 37° C. The cells were treated with trypsin-EDTA for 15 min at 37° C. and then harvested using a micromate 196 harvester. Radioactivity was counted and IC50 values were determined.

For data set [3] the following is noted: antitumor use; cited from earlier work.
Where [4] appears, read: Homo sapiens, U-937, 48 h incubation.

Structures are written as SMILES.

For the molecule `CCCC(=O)Nc1cc(C=CC(=O)N2CC(CCl)c3c2cc(O)c2ccccc32)n(C)c1` (stereo not drawn) [YW-222, 3-(4-Butyramido-1-methyl-2-pyrroleacryloylcarbonyl)-1-(chloromethyl)-5-hydroxy-1,2-dihydro-3H-benz[e]indole], the IC50 in the data set with U937 Cells (setting [4]) came out at 0.5 nM.

On to `O=C(CCCO)Nc1ccc2[nH]c(C(=O)N3CC(CCl)c4c3cc(O)c3ccccc43)cc2c1` (stereo not drawn) [YW-231, 3-[[5-[(4-Hydroxy)butyramino]-1H-indol-2'-yl]carbonyl]-1-(chloromethyl)-5-hydroxy-1,2-dihydro-3H-benz[e]indole], for which the IC50 in the data set on B16 Melanoma was 4 nM; with U937 Cells (setting [4]), 0.6 nM.

Molecule `O=C(Cc1cccs1)N[C@@H]1C(=O)N2C(C(=O)O)=C(COC(=O)Nc3ccc4[nH]c(C(=O)N5CC(CCl)c6c5cc(O)c5ccccc65)cc4c3)C[S+]([O-])[C@H]12` (stereo partly drawn) [YW-285] showed an IC50 in the data set on U937 Cells (setting [4]) of 0.9 nM.

For the molecule `CC(=O)Nc1ccc2oc(C(=O)Nc3ccc4[nH]c(C(=O)N5CC6CC67C5=CC(=O)c5ccccc57)cc4c3)cc2c1` (stereo not drawn) [YW-213, N^2-[[5-[[[5-(Acetamino)-1H-benzofuran-2-yl]carbonyl]amino]-1H-indol-2-yl]carbonyl]1,2,9,9a-tetrahydrocyclopropa[c]-benz[e]indol-4-one], 0.2 nM corresponded to half-maximal inhibition with U937 Cells (setting [4]) (IC50).

For the molecule `CC(=O)Nc1cc(C(=O)N2CC(CCl)c3c2cc(O)c2ccccc32)n(C)c1` (stereo not drawn) [YW-161, 3-[(4-Acetamino-1-methylpyrrole-2-yl)carbony:L]-1-(chloromethyl)-5-hydroxy-1,2-dihydro-3H-benz[e]indole], in the data set on U937 Cells (48 h incubation), the half-maximal inhibitory concentration (IC50) worked out at 5 nM.

The molecule `CC(=O)Nc1ccc2[nH]c(C(=O)N3CC(CCl)c4c3cc(O)c3ccccc43)cc2c1` (stereo not drawn) [YW-198, 3-[[5-(acetamino)-1H-indol-2'-yl]carbonyl]-1-(chloromethyl)-5-hydroxy-1,2-dihydro-3H-benz[e]indole] came in with an IC50 in the data set on U937 Cells (setting [4]) of 0.2 nM.

On to `O=C(CCCC[C@@H]1SC[C@@H]2NC(=O)N[C@@H]21)Nc1ccc2[nH]c(C(=O)N3CC(CCl)c4c3cc(O)c3ccccc43)cc2c1` (stereo partly drawn) [YW-235, 3-[[5-(Biotin-amino)-1H-indol-2'-yl]carbonyl]-1-(chloromethyl)-5-hydroxy-1,2-dihydro-3H-benz[e]indole], for which the IC50 with U937 Cells (setting [4]) is 0.7 nM.

In the data set on U937 Cells (setting [4]), `CC(=O)Nc1ccc2[nH]c(C=CC(=O)N3CC(CCl)c4c3cc(O)c3ccccc43)cc2c1` (stereo not drawn) [YW-202, 3-[[5-(acetamino)-1H-indol-2-yl]acrylyl]-1-(chloromethyl)-5-hydroxy-1,2-dihydro-3H-benz[e]indole] displayed an IC50 of 0.2 nM.

Take `CCN(CC)c1ccc2cc(C(=O)Nc3ccc4[nH]c(C(=O)N5C[C@@H](CCl)c6c5cc(OC(=O)Nc5ccccc5)c5[nH]cc(C)c65)cc4c3)oc2c1` [U-80244]: the delayed death entry in data set [1] is “do not cause delayed death”.

Regarding `Nc1ccc2[nH]c(C(=O)N3CC(CCl)c4c3cc(O)c3ccccc43)cc2c1` (stereo not drawn) [YW-242, 3-[(5-Amino-1H-indol-2'-yl)carbonyl]-1-(chloromethyl)-5-hydroxy-1,2-dihydro-3H-benz[e]indole], the IC50 with B16 Melanoma stood at 11 nM; in the data set with U937 Cells (setting [4]), 0.09 nM; in data set [2] it was 200 nM.

In the data set with B16 Melanoma, `CC(=O)Nc1ccc2[nH]c(C(=O)Nc3ccc4[nH]c(C(=O)N5CC(CCl)c6c5cc(O)c5ccccc65)cc4c3)cc2c1` (stereo not drawn) [YW-200, 3-[[5-[[5-(Acetamino)-1H-indol-2-ylcarbonyl]amino]-1H-indol-2-yl]carbonyl]-1-(chloromethyl)-5-hydroxy-1,2-dihydro-3H-benz[e]indole] registered an IC50 of 7.2 nM.

Take `COC(=O)[C@H]1O[C@@H](OCCCC(=O)Nc2ccc3[nH]c(C(=O)N4CC(CCl)c5c4cc(O)c4ccccc54)cc3c2)[C@H](OC(C)=O)[C@@H](OC(C)=O)[C@@H]1OC(C)=O` (stereo partly drawn) [YW-247, 3-[[5-[4-(Methyl 2,3,4-tri-O-acetyl-1-deoxy-b-D-glucuronate)butyramino]-1H-indol-2'-yl]carbonyl]-1-(chloromethyl)-5-hydroxy-1,2-dihydro-3H-benz[e]indole]: half-maximal inhibition with U937 Cells (setting [4]) (IC50) required 1.4 nM.

In turn, `Cn1cc(N)cc1C(=O)N1CC(CCl)c2c1cc(O)c1ccccc21` (stereo not drawn) [YW-284, 3-[(4-Amino-1-methylpyrrole-2-yl)carbonyl]-1-(chloromethyl)-5-hydroxy-1,2-dihydro-3H-benz[e]indole] yielded an IC50 with U937 Cells (setting [4]) of 9 nM.

In the data set on U937 Cells (setting [4]), `COC(=O)[C@H]1O[C@@H](OCCCC(=O)Nc2ccc3[nH]c(C(=O)Nc4ccc5[nH]c(C(=O)N6CC(CCl)c7c6cc(O)c6ccccc76)cc5c4)cc3c2)[C@H](OC(C)=O)[C@@H](OC(C)=O)[C@@H]1OC(C)=O` (stereo partly drawn) [YW-249, 3-[[5-[[5-[4-(Methyl 2,3,4-tri-O-acetyl-1-deoxy-b-D-glucuronate)butyramino]-1H-indol-2-ylcarbonyl]amino]-1H-indol-2-yl]carbony 1]-1-(chloromethyl)-5-hydroxy-1,2-dihydro-3H-benz[e]indole] registered an IC50 of 0.55 nM.

In the data set with U937 Cells (48 h incubation), `O=C(C=Cc1cc2ccccc2o1)Nc1ccc2[nH]c(C(=O)N3CC(CCl)c4c3cc(O)c3ccccc43)cc2c1` (stereo not drawn) [YW-215, 3-[[5-[(1H-Benzofuran-2-ylacrylyl)amino]-1H-indol-2-yl]carbony 1]-1-(chloromethyl)-5-hydroxy-1,2-dihydro-3H-benz[e]indole] came in with an IC50 of 0.09 nM.

Turning to `Cc1c[nH]c2c1[C@@]13C[C@@H]1CN(C(=O)c1cc4cc(NC(=O)c5cc6ccccc6o5)ccc4[nH]1)C3=CC2=O` [U-73975], the delayed death entry in data set [1] is recorded as “do not cause delayed death”.

Take `Cc1c[nH]c2c(O)cc3c(c12)[C@H](CCl)CN3C(=O)c1cc2cc(NC(=O)Nc3ccc4[nH]c(C(=O)N5C[C@@H](CCl)c6c5cc(O)c5[nH]cc(C)c65)cc4c3)ccc2[nH]1` [U-77779]: the delayed death result in data set [1] is given as “do not cause delayed death”.

In the case of `COc1cccc2c1C(=O)c1c(O)c3c(c(O)c1C2=O)C[C@@](O)(C(=O)CO)C[C@@H]3O[C@H]1C[C@H](N)[C@H](O)[C@H](C)O1` [Doxorubicin, reference compound], the figures for the IC50 (in the data set with B16 Melanoma; in the data set with U937 Cells (setting [4]); in data set [2]) were 780 nM, 100 nM and 6000 nM, respectively.

As to `Cn1cc(NC(=O)c2cc(NC(=O)c3cc(NC=O)cn3C)cn2C)cc1C(=O)NCCC(=N)N` [distamycin], in data set [3], the therapeutic efficacy entry is on record as “low therapeutic efficacy”.

Take `Cn1cc(NC(=O)c2cc(NC(=O)CN=C(N)N)cn2C)cc1C(=O)NCCC(=N)N` [netropsin]: in data set [3], the therapeutic efficacy entry is recorded as “low therapeutic efficacy”.

As for `COC(=O)c1c(C)[nH]c2c(OC(=O)N3CCN(C)CC3)cc3c(c12)[C@H](CBr)CN3C(=O)c1cc2cc(OC)c(OC)c(OC)c2[nH]1` [KW 2189], the delayed death entry in data set [1] was “do not cause delayed death”.

Regarding `COC(=O)[C@H]1O[C@@H](OCCCC(=O)Nc2ccc3[nH]c(C(=O)Nc4ccc5[nH]c(C(=O)Nc6ccc7[nH]c(C(=O)N8CC(CCl)c9c8cc(O)c8ccccc98)cc7c6)cc5c4)cc3c2)[C@H](OC(C)=O)[C@@H](OC(C)=O)[C@@H]1OC(C)=O` (stereo partly drawn) [YW-258, 3-[[5-[[5-[[5-[4-(Methyl 2,3,4-tri-O-acetyl-1-deoxy-b-D-glucuronate)butyramino]-1H-indo 1-2-ylcarbonyl]amino]-1H-indol-2-ylcarbonyl]amino]-1H-indol-2-yl]carbonyl]-1-(chloromethyl)-5-hydroxy-1,2-dihydro-3H-benz[e] indole], the IC50 with U937 Cells (setting [4]) amounted to 0.08 nM.

Turning to `CC(=O)Nc1ccc2oc(C(=O)Nc3ccc4[nH]c(C(=O)N5CC(CCl)c6c5cc(O)c5ccccc65)cc4c3)cc2c1` (stereo not drawn) [YW-201, 3-[[5-[[5-(Acetamino)-1H-benzofuran-2-ylcarbonyl]amino]-1H-indol-2-yl]carbonyl]-1-(chloromethyl)-5-hydroxy-1,2-dihydro-3H-benz[e]indole], in the data set with U937 Cells (setting [4]), it took 0.07 nM to reach half-maximal inhibition (IC50).

Molecule `O=C(CCCO)Nc1ccc2[nH]c(C(=O)Nc3ccc4[nH]c(C(=O)Nc5ccc6[nH]c(C(=O)N7CC(CCl)c8c7cc(O)c7ccccc87)cc6c5)cc4c3)cc2c1` (stereo not drawn) [YW-259] came in with an IC50 with U937 Cells (setting [4]) of 0.09 nM.

For `O=C(CCCO)Nc1ccc2[nH]c(C(=O)Nc3ccc4[nH]c(C(=O)N5CC(CCl)c6c5cc(O)c5ccccc65)cc4c3)cc2c1` (stereo not drawn) [YW-254, 3-[[5-[[5-[4-(Hydroxy)butyramino]-1H-indol-2-ylcarbonyl]amino]-1H-indol-2-yl]carbonyl]-1-(chloromethyl)-5-hydroxy-1,2-dihydro-3H-benz[e]indole], the IC50 with U937 Cells (setting [4]) stood at 0.1 nM.
